Assay results: patent publication US7459444B2, “Inhibitors of chymase” (Janssen Pharmaceutica N.V., priority 2004, dated 2008)

Target: T1, human skin chymase (Homo sapiens, UniProt P23946)
T1 construct: using human skin chymase (Cortex Biochem); purchased Cortex Biochem
T1 sequence (P23946 22-247): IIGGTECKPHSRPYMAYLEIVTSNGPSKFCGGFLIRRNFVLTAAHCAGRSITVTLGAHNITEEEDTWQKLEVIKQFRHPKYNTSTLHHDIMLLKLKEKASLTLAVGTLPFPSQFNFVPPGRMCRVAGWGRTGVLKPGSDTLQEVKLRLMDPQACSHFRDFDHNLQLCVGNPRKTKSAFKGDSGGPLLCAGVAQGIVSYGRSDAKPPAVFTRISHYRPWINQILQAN
Test: Enzyme-catalyzed hydrolysis assay (chymase inhibition)
Format: biochemical
Details: 10 nM enzyme, 0.7 mM Suc-Ala-Ala-Pro-Phe-pNa, pH 8.0, 37° C., 30 minutes
Method: Enzyme-catalyzed hydrolysis rates were measured spectro-photometrically using human skin chymase (Cortex Biochem), a chromogenic substrate (Suc-Ala-Ala-Pro-Phe-pNa) (Bachem) in aqueous buffer (450 mM Tris, 1800 mM NaCl, pH 8.0), and a microplate reader (Molecular Devices). […] Percent inhibition was calculated by comparing the initial reaction slopes of the samples without inhibitor to those with inhibitor. IC50 values were determined using a four parameter fit logistics model. The term “NT” indicates a compound that was not tested.

SMILES | IC50 [µM]
Cc1ccc2scc(C(C(=O)Nc3ccc4ccccc4c3)P(=O)(O)O)c2c1 (stereo not drawn) [Cpd 5] | 0.019 ± 0.005
Cn1cc(C(C(=O)N/C=C/c2cccc(F)c2)P(C)(=O)O)c2cc(Cl)ccc21 (stereo not drawn) [Cpd 6] | 0.02
O=C(Nc1cc(NC(=O)C(c2cccc3ccccc23)P(=O)(O)O)cc2ccccc12)C1CCN(C(=O)c2ccc3ccccc3c2)CC1 (stereo not drawn) [Cpd 8, [(4-{[1-(Naphthalene-2-carbonyl)-piperidine-4-carbonyl]-amino}-naphthalen-2-ylcarbamoyl)-naphthalen-1-yl-methyl]-phosphonic acid] | 0.021 ± 0.01
O=C(Nc1ccc2ccccc2c1)C(c1csc2ccc(F)cc12)P(=O)(O)O (stereo not drawn) [Cpd 10] | 0.029 ± 0.01
Cn1cc(C(C(=O)Nc2ccc3ccccc3c2)P(=O)(O)O)c2cc(F)ccc21 (stereo not drawn) [Cpd 11] | 0.037 ± 0.01
Nc1ccc(/C=C/NC(=O)C(c2csc3ccc(Cl)cc23)P(=O)(O)O)cc1 (stereo not drawn) [Cpd 12] | 0.038 ± 0.013
Cn1cc(C(C(=O)Nc2ccc3ccccc3c2)P(=O)(O)O)c2cc(Br)ccc21 (stereo not drawn) [Cpd 13] | 0.04 ± 0.02
CP(=O)(O)C(C(=O)N/C=C/c1cccc(F)c1)c1csc2ccc(Cl)cc12 (stereo not drawn) [Cpd 15] | 0.052 ± 0.015
CP(=O)(O)C(C(=O)N/C=C/c1cc(F)c(F)c(F)c1)c1csc2ccc(Cl)cc12 (stereo not drawn) [Cpd 16] | 0.055 ± 0.005
CP(=O)(O)C(C(=O)N/C=C/c1ccccc1F)c1csc2ccc(Cl)cc12 (stereo not drawn) [Cpd 21] | 0.08 ± 0.02
O=C(Nc1ccc2ccccc2c1)C(c1csc2ccc(Br)cc12)P(=O)(O)O (stereo not drawn) [Cpd 23, [(5-Bromo-benzo[b]thiophen-3-yl)-(naphthalen-2-ylcarbamoyl)-methyl]-phosphonic acid] | 0.1 ± 0.03
CP(=O)(O)C(C(=O)N/C=C/c1ccc(F)cc1)c1csc2ccc(Cl)cc12 (stereo not drawn) [Cpd 24] | 0.1 ± 0.033
O=C(N/C=C/c1cccnc1)C(c1csc2ccc(Cl)cc12)P(=O)(O)O (stereo not drawn) [Cpd 25] | 0.109 ± 0.03
O=C(Nc1ccc2ccccc2c1)C(c1cn(CC=Cc2ccccc2)c2ccccc12)P(=O)(O)O (stereo not drawn) [Cpd 27] | 0.13 ± 0.02
O=C(Nc1ccc2ncsc2c1)C(c1csc2ccc(Cl)cc12)P(=O)(O)O (stereo not drawn) [Cpd 30] | 0.17 ± 0.01
CP(=O)(O)C(C(=O)Nc1ccc2ccccc2c1)c1c(C(=O)N2CCC(c3ccccc3)CC2)sc2ccccc12 (stereo not drawn) [Cpd 32, Methyl-{(naphthalen-2-ylcarbamoyl)-[2-(4-phenyl-piperidine-1-carbonyl)-benzo[b]thiophen-3-yl]-methyl}-phosphinic acid] | 0.21 ± 0.01
COCCCP(=O)(O)C(C(=O)Nc1ccc2ccccc2c1)c1csc2ccc(Cl)cc12 (stereo not drawn) [Cpd 34] | 0.22 ± 0.01
COc1ccc(C2CCN(C(=O)c3sc4ccccc4c3C(C(=O)Nc3ccc4ccccc4c3)P(C)(=O)O)CC2)cc1 (stereo not drawn) [Cpd 35] | 0.235 ± 0.045
O=C(N/C=C/c1ccccc1)C(c1cccc2ccccc12)P(=O)(O)O (stereo not drawn) [Cpd 37] | 0.25 ± 0.12

SMILES | IC50 [µM]
O=C(Nc1ccc2ccccc2c1)C(c1csc2ccc(Cl)cc12)P(=O)(O)CCCc1ccc2c(c1)OCO2 (stereo not drawn) [Cpd 39] | 0.31 ± 0.04
O=C(Nc1ccc2ccccc2c1)C(c1csc2ccc(Cl)cc12)P(=O)(O)CCCc1ccc(O)cc1 (stereo not drawn) [Cpd 43] | 0.35 ± 0.07
O=P(O)(O)C(C(=S)Nc1ccc2ccccc2c1)c1csc2ccc(Cl)cc12 (stereo not drawn) [Cpd 45, [(5-Chloro-benzo[b]thiophen-3-yl)-(naphthalen-2-ylthiocarbamoyl)-methyl]-phosphonic acid] | 0.371 ± 0.11
CN(C(=O)c1cc2ccccc2cc1NC(=O)C(c1cccc2ccccc12)P(=O)(O)O)C1CC=C(c2ccccc2)CC1 (stereo not drawn) [Cpd 46, ({3-[Methyl-(4-phenyl-cyclohex-3-enyl)-carbamoyl]-naphthalen-2-ylcarbamoyl}-naphthalen-1-yl-methyl)-phosphonic acid] | 0.388 ± 0.116
O=C(Nc1ccc2ccccc2c1)C(c1csc2ccc(Cl)cc12)P(=O)(O)CCCc1ccccc1 (stereo not drawn) [Cpd 48] | 0.421 ± 0.151
COc1ccc(C=CNC(=O)C(c2csc3ccc(Cl)cc23)P(=O)(O)O)cc1OC (stereo not drawn) [Cpd 49] | 0.43 ± 0.09
O=C(Nc1ccc2ccccc2c1)C(c1csc2ccc(Cl)cc12)S(=O)(=O)O (stereo not drawn) [Cpd 50, [(5-Chloro-benzo[b]thiophen-3-yl)-(naphthalen-2-ylcarbamoyl)-methyl]-sulfonic acid] | 0.43 ± 0.15
O=C(Nc1ccc2ccccc2c1)C(c1csc2ccc(Cl)cc12)P(=O)(O)CCCCc1ccccc1 (stereo not drawn) [Cpd 51] | 0.46 ± 0.06
Cn1cc(C(C(=O)Nc2ccc3ccccc3c2)P(=O)(O)O)c2ccc(Cl)cc21 (stereo not drawn) [Cpd 52] | 0.48 ± 0.18
COc1ccc(CCCP(=O)(O)C(C(=O)Nc2ccc3ccccc3c2)c2csc3ccc(Cl)cc23)cc1 (stereo not drawn) [Cpd 53] | 0.49 ± 0.16
O=C(Nc1cc2ccccc2cc1C(=O)N1CCC(CCc2ccccc2)C1)C(c1cccc2ccccc12)P(=O)(O)O (stereo not drawn) [Cpd 54] | 0.51 ± 0.124
O=C(Nc1ccc2sccc2c1)C(c1csc2ccc(Cl)cc12)P(=O)(O)O (stereo not drawn) [Cpd 55] | 0.52 ± 0.51
Cn1cc(C(C(=O)Nc2ccc3ccccc3c2)P(=O)(O)O)c2cc(C(=O)O)ccc21 (stereo not drawn) [Cpd 56, 1-Methyl-3-[(naphthalen-2-ylcarbamoyl)-phosphono-methyl]-1H-indole-5-carboxylic acid] | 0.606 ± 0.13
O=C(Nc1cnc2ccccc2c1)C(c1cccc2ccccc12)P(=O)(O)O (stereo not drawn) [Cpd 57] | 0.609
Cn1cc(C(C(=O)Nc2ccc3ccccc3c2)P(=O)(O)O)c2cccc(Cl)c21 (stereo not drawn) [Cpd 58] | 0.63 ± 0.13
O=C(Nc1ccc2ccsc2c1)C(c1cccc2ccccc12)P(=O)(O)O (stereo not drawn) [Cpd 59] | 0.635
O=C(Nc1cc2ccccc2cc1C(=O)N1CCC(n2c(=O)[nH]c3ccc(Cl)cc32)CC1)C(c1cccc2ccccc12)P(=O)(O)O (stereo not drawn) [Cpd 60, ({3-[4-(6-Chloro-2-oxo-2,3-dihydro-benzoimidazol-1-yl)-piperidine-1-carbonyl]-naphthalen-2-ylcarbamoyl}-naphthalen-1-yl-methyl)-phosphonic acid] | 0.663
O=C(Nc1ccc2ccccc2c1)C(c1cn(CC2CC2)c2ccccc12)P(=O)(O)O (stereo not drawn) [Cpd 62] | 0.82 ± 0.5
Cn1cc(C(C(=O)Nc2ccc3ccccc3c2)P(=O)(O)O)c2c(Cl)cccc21 (stereo not drawn) [Cpd 63, [(4-Chloro-1-methyl-1H-indol-3-yl)-(naphthalen-2-ylcarbamoyl)-methyl]-phosphonic acid] | 0.83 ± 0.18

SMILES | IC50 [µM]
O=C(Nc1cc2ccccc2s1)C(c1cccc2ccccc12)P(=O)(O)O (stereo not drawn) [Cpd 64] | 0.83 ± 0.08
Cn1cc(C(C(=O)Nc2ccc3ccccc3c2)P(=O)(O)O)c2cc(C#N)ccc21 (stereo not drawn) [Cpd 65] | 0.84 ± 0.19
O=C(NC=Cc1ccc(O)cc1)C(c1csc2ccc(Cl)cc12)P(=O)(O)O (stereo not drawn) [Cpd 66] | 0.868 ± 0.13
O=C(Nc1ccc2cc(Br)ccc2c1)C(c1csc2ccc(Cl)cc12)P(=O)(O)O (stereo not drawn) [Cpd 67] | 0.92 ± 0.25
Nc1nc2ccc(NC(=O)C(c3csc4ccc(Cl)cc34)P(=O)(O)O)cc2s1 (stereo not drawn) [Cpd 69, [(5-Chloro-benzo[b]thiophen-3-yl)-(2-amino-4-benzothioazol-6-ylcarbamoyl)-methyl]-phosphonic acid] | 0.93 ± 0.95
O=C(Nc1cc2ccccc2cc1CNC1CCCCC1)C(c1cccc2ccccc12)P(=O)(O)O (stereo not drawn) [Cpd 70, [(3-Cyclohexylaminomethyl-naphthalen-2-ylcarbamoyl)-naphthalen-1-yl-methyl]-phosphonic acid] | 0.93 ± 0.07
O=C(Nc1ccc2ccccc2c1)C(c1csc2ccc(-c3ccccc3)cc12)P(=O)(O)O (stereo not drawn) [Cpd 71, [(5-phenyl-benzo[b]thiophen-3-yl)-(naphthalen-2-ylcarbamoyl)-methyl]-phosphonic acid] | 1 ± 0.3
O=C(NCc1ccccc1)OCc1cc2ccccc2cc1NC(=O)C(c1cccc2ccccc12)P(=O)(O)O (stereo not drawn) [Cpd 72, [(3-Benzylcarbamoyloxymethyl-naphthalen-2-ylcarbamoyl)-naphthalen-1-yl-methyl]-phosphonic acid] | 1.3 ± 0.61
COc1ccc2c(c1)c(C(C(=O)Nc1ccc3ccccc3c1)P(=O)(O)O)cn2C (stereo not drawn) [Cpd 74] | 1.39 ± 0.554
COC(=O)c1cc2ccccc2cc1NC(=O)C(c1cccc2ccccc12)P(=O)(O)O (stereo not drawn) [Cpd 75, 3-(2-Naphthalen-1-yl-2-phosphono-acetylamino)-naphthalene-2-carboxylic acid methyl ester] | 1.4 ± 0.6
O=C(Nc1ccc2ccccc2c1)C(c1csc2cc(Br)ccc12)P(=O)(O)O (stereo not drawn) [Cpd 76] | 1.43 ± 0.451
CC(C)n1cc(C(C(=O)Nc2ccc3ccccc3c2)P(=O)(O)O)c2ccccc21 (stereo not drawn) [Cpd 77] | 1.48 ± 0.45
CP(=O)(O)C(C(=O)NC=Cc1ccc(Cl)cc1)c1csc2ccc(Cl)cc12 (stereo not drawn) [Cpd 78] | 1.5 ± 0.43
O=C(Nc1ccc2ncccc2c1)C(c1cccc2ccccc12)P(=O)(O)O (stereo not drawn) [Cpd 79] | 1.6
O=C(NC=Cc1ccc(C(F)(F)F)cc1)C(c1csc2ccc(Cl)cc12)P(=O)(O)O (stereo not drawn) [Cpd 81] | 1.7 ± 0.21
O=C(Nc1ccc2ccccc2c1)C(c1cn(-c2ccccc2)c2ccccc12)P(=O)(O)O (stereo not drawn) [Cpd 82, [(Naphthalen-2-ylcarbamoyl)-(1-phenyl-1H-indol-3-yl)-methyl]-phosphonic acid] | 1.7 ± 0.41
O=C(Nc1cc2ccccc2cc1C(=O)N1CCC(c2c[nH]c3ccccc23)CC1)C(c1cccc2ccccc12)P(=O)(O)O (stereo not drawn) [Cpd 83] | 1.72
O=C(O)C(C(=O)Nc1ccc2ccccc2c1)c1csc2ccc(Cl)cc12 (stereo not drawn) [Cpd 84, [(5-Chloro-benzo[b]thiophen-3-yl)-(naphthalen-2-ylcarbamoyl)-methyl]-carboxylic acid] | 1.75 ± 0.285
O=C(Nc1ccc2ccccc2c1)C(C1=CS(=O)(=O)c2ccc(Cl)cc21)P(=O)(O)O (stereo not drawn) [Cpd 86, [(5-Chloro-1,1-dioxo-1H-1λ^6-benzo[b]thiophen-3-yl)-(naphthalen-2-ylcarbamoyl)-methyl]-phosphonic acid] | 1.9 ± 0.4
